Results: US9510592B2, “Pesticidal compositions and processes related thereto” (Dow AgroSciences LLC, priority 2012, dated 2016)

The compounds below were run on Beet Armyworm (Spodoptera exigua) (assay: Bioassay on Beet Armyworm (BAW), 128-well diet tray assay). Details: percent mortality of second instar larvae, 50 μg/cm^2 on artificial diet, five to seven days, 25° C.; Table 3.
Type: in vivo
Method: Certain molecules disclosed in this document were tested against BAW and CEW and CL using procedures described in the following examples. In the reporting of the results, the “BAW & CEW & CL Rating Table” was used (See Table Section).
Bioassays on BAW (Spodoptera exigua)
Bioassays on BAW were conducted using a 128-well diet tray assay. one to five second instar BAW larvae were placed in each well (3 mL) of the diet tray that had been previously filled with 1 mL of artificial diet to which 50 μg/cm^2 of the test compound (dissolved in 50 μL of 90:10 acetone-water mixture) had been applied (to each of eight wells) and then allowed to dry. Trays were covered with a clear self-adhesive cover, and held at 25° C., 14:10 light-dark for five to seven days. Percent mortality was recorded for the larvae in each well; activity in the eight wells was then averaged. The results are indicated in the table entitled “Table 3: Assay Results” (See Table Section).

Compound | BAW Rating
FC(F)(F)C(/C=C/c1ccc(CNc2ccccn2)c(Cl)c1)c1cc(Cl)c(Cl)c(Cl)c1 (centres unmarked) [CC43, (E)-N-(2-Chloro-4-(4,4,4-trifluoro-3-(3,4,5-trichlorophenyl)but-1-en-1-yl)benzyl)pyridin-2-amine] | A (50-100)
Cc1cc(/C=C/C(c2ccc(Cl)c(Cl)c2)C(F)(F)F)ccc1C(=O)NCc1ccc(Cl)nc1 (centres unmarked) [AC37] | A (50-100)
COc1cc(/C=C/C(c2cc(Cl)c(F)c(Cl)c2)C(F)(F)F)ccc1C(=O)NC1CS(=O)(=O)C1 (centres unmarked) [AC85] | A (50-100)
Cc1cc(/C=C/C(c2cc(Cl)cc(Cl)c2)C(F)(F)F)ccc1C(=O)NNc1ccccc1F (centres unmarked) [AC17] | A (50-100)
O=C(CC(F)(F)F)NCc1ccc(/C=C/C(c2cc(Cl)c(Cl)c(Cl)c2)C(F)(F)F)cc1C(F)(F)F (centres unmarked) [CC24] | A (50-100)
O=C(CC(F)(F)F)NCc1ccc(/C=C/C(c2cc(Cl)cc(Cl)c2)C(F)(F)F)cc1Cl (centres unmarked) [CC9] | A (50-100)
O=C(CC(F)(F)F)NCc1ccc(/C=C/C(c2cc(Cl)c(Cl)c(Cl)c2)C(F)(F)F)cc1 (centres unmarked) [CC6] | A (50-100)
FC(F)(F)c1cc(/C=C/C(c2cc(Cl)cc(Cl)c2)C(F)(F)F)ccc1-n1cncn1 (centres unmarked) [DC51] | A (50-100)
Cc1cc(/C=C/C(c2cc(Cl)c(Cl)c(Cl)c2)C(F)(F)F)ccc1C(=O)NC1CSC1 (centres unmarked) [AC23] | A (50-100)
O=C(CC(F)(F)F)NCc1ccc(/C=C\C(c2cc(Cl)c(Cl)c(Cl)c2)C(F)(F)F)cc1 (centres unmarked) [CC54, (Z)-3,3,3-Trifluoro-N-(4-(4,4,4-trifluoro-3-(3,4,5-trichlorophenyl)but-1-en-1-yl)benzyl)propanamide] | A (50-100)
Cc1cc(/C=C/C(c2cc(Cl)c(F)c(Cl)c2)C(F)(F)F)ccc1C(=O)NCc1ccnc(Cl)c1 (centres unmarked) [AC54] | A (50-100)
C=CCNC(=O)CNC(=O)c1ccc(/C=C/C(c2cc(Cl)c(Cl)c(Cl)c2)C(F)(F)F)cc1Br (centres unmarked) [AC111] | A (50-100)
Cc1cc(/C=C/C(c2cc(Cl)c(Cl)c(Cl)c2)C(F)(F)F)ccc1C(=O)NCc1ccc(Cl)nc1 (centres unmarked) [AC22] | A (50-100)
Cc1cc(/C=C/C(c2cc(Cl)cc(Cl)c2)C(F)(F)F)ccc1C(=O)NC1CS(=O)(=O)C1 (centres unmarked) [AC13] | A (50-100)
Fc1cc(/C=C/C(c2cc(Cl)cc(Cl)c2)C(F)(F)F)ccc1-n1cncn1 (centres unmarked) [DC48] | A (50-100)
N#Cc1cc(/C=C/C(c2cc(Cl)c(Cl)c(Cl)c2)C(F)(F)F)ccc1-n1cnc(N)n1 (centres unmarked) [DC41, (E)-2-(3-Amino-1H-1,2,4-triazol-1-yl)-5-(4,4,4-trifluoro-3-(3,4,5-trichlorophenyl)but-1-en-1-yl)benzonitrile] | A (50-100)
O=C(CNC(=O)c1ccc(/C=C/C(c2cc(Cl)c(Cl)c(Cl)c2)C(F)(F)F)cc1Cl)NCC(F)(F)F (centres unmarked) [AC64, (E)-2-Chloro-N-(2-oxo-2-((2,2,2-trifluoroethyl)amino)ethyl)-4-(4,4,4-trifluoro-3-(3,4,5-trichlorophenyl)but-1-en-1-yl)benzamide] | A (50-100)
FC(F)(F)C(/C=C/c1ccc(CNC(=S)C2CC2)c(Cl)c1)c1cc(Cl)c(Cl)c(Cl)c1 (centres unmarked) [CC20] | A (50-100)
N#Cc1cc(/C=C/C(c2cc(Cl)cc(Cl)c2)C(F)(F)F)ccc1-n1cnc(N)n1 (centres unmarked) [DC38] | A (50-100)

Compound | BAW Rating
COC(/C=C/c1ccc(-n2cncn2)cc1)(c1cc(Cl)cc(Cl)c1)C(F)(F)F (centres unmarked) [DC70, (E)-1-(4-(3-(3,5-Dichlorophenyl)-4,4,4-trifluoro-3-methoxybut-1-en-1-yl)phenyl)-1H-1,2,4-triazole] | A (50-100)
N#Cc1cc(/C=C/C(c2cc(Cl)cc(Cl)c2)C(F)(F)F)ccc1-n1cnc([N+](=O)[O-])n1 (centres unmarked) [DC37] | A (50-100)
O=C(Cn1ncc2cc(/C=C/C(c3cc(Cl)c(F)c(Cl)c3)C(F)(F)F)ccc2c1=O)NCC(F)(F)F (centres unmarked) [BC14, (E)-2-(6-(3-(3,5-Dichloro-4-fluorophenyl)-4,4,4-trifluorobut-1-en-1-yl)-1-oxophthalazin-2(1H)-yl)-N-(2,2,2-trifluoroethyl)acetamide] | A (50-100)
C/C(=C\C(c1cc(Cl)cc(Cl)c1)C(F)(F)F)c1ccc(-n2cncn2)cc1 (centres unmarked) [DC68, (E)-1-(4-(4-(3,5-Dichlorophenyl)-5,5,5-trifluoropent-2-en-2-yl)phenyl)-1H-1,2,4-triazole] | A (50-100)
O=C(NC1C[S+]([O-])C1)c1ccc(/C=C/C(c2cc(Cl)c(F)c(Cl)c2)C(F)(F)F)cc1F (centres unmarked) [AC87] | A (50-100)
O=C(CNC(=O)c1ccc(/C=C/C(c2cc(Cl)c(Cl)c(Cl)c2)C(F)(F)F)cc1Br)NCC(F)(F)F (centres unmarked) [AC66] | A (50-100)
O=C(Cc1ccc(Cl)nc1)NC1CCc2cc(/C=C/C(c3cc(Cl)c(F)c(Cl)c3)C(F)(F)F)ccc21 (centres unmarked) [BC9] | A (50-100)
O=C(NCc1ccc(/C=C/C(c2cc(Cl)cc(Cl)c2)C(F)(F)F)cc1)C1CC1 (centres unmarked) [CC2] | A (50-100)
O=C(CC(F)(F)F)NNc1ccc(/C=C/C(c2cc(Cl)c(Cl)c(Cl)c2)C(F)(F)F)cc1 (centres unmarked) [CC51] | A (50-100)
O=C(CC(F)(F)F)NCc1ccc(/C=C/C(c2cc(Cl)cc(Cl)c2)C(F)(F)F)cc1 (centres unmarked) [CC3] | A (50-100)
FC(F)(F)C(/C=C/c1ccc(-n2cncn2)c(Cl)c1)c1cc(Cl)cc(Cl)c1 (centres unmarked) [DC50] | A (50-100)
Cc1cc(/C=C/C(c2cc(Cl)cc(Cl)c2)C(F)(F)F)ccc1C(=O)N(C)Cc1ccc(Cl)nc1 (centres unmarked) [AC117] | A (50-100)
O=C(NCc1ccc(/C=C/C(c2cc(Cl)c(Cl)c(Cl)c2)C(F)(F)F)cc1Cl)N1CCOCC1 (centres unmarked) [CC34] | A (50-100)
Fc1ccc(C(/C=C/c2ccc(-n3cncn3)cc2)C(F)(F)F)cc1 (centres unmarked) [DC7] | A (50-100)
N#Cc1cc(/C=C\C(c2cc(Cl)c(F)c(Cl)c2)C(F)(F)F)ccc1-n1cncn1 (centres unmarked) [DC46] | A (50-100)
O=C(NCc1ccc(/C=C/C(c2cc(Cl)c(Cl)c(Cl)c2)C(F)(F)F)cc1Br)C1CC1 (centres unmarked) [CC26] | A (50-100)
Cc1cc(/C=C/C(c2cc(Cl)c(Cl)c(Cl)c2)C(F)(F)F)ccc1-n1cncn1 (centres unmarked) [DC63] | A (50-100)
CCc1cc(/C=C/C(c2cc(Cl)c(F)c(Cl)c2)C(F)(F)F)ccc1C(=O)NCc1ccc(Cl)nc1 (centres unmarked) [AC72] | A (50-100)
Cc1cc(/C=C/C(c2cc(Cl)cc(Cl)c2)C(F)(F)F)ccc1C(=O)NCc1cncnc1 (centres unmarked) [AC39, 4-((E)-3-(3,5-Dichlorophenyl)-4,4,4-trifluorobut-1-enyl)-2-methyl-N-((pyrimidin-5-yl)methyl)benzamide] | A (50-100)

Compound | BAW Rating
O=C(NCc1ccc(/C=C/C(c2cc(Cl)c(Cl)c(Cl)c2)C(F)(F)F)cc1F)C1CC1 (centres unmarked) [CC28] | A (50-100)
O=C(NCc1ccc(Cl)nc1)c1ccc(/C=C/C(c2cc(Cl)c(F)c(Cl)c2)C(F)(F)F)cc1Br (centres unmarked) [AC63] | A (50-100)
O=C(CNC(=O)c1ccc(/C=C/C(c2cc(Cl)cc(Cl)c2)C(F)(F)F)cc1F)NCC(F)(F)F (centres unmarked) [AC62] | A (50-100)
Cc1cc(/C=C/C(c2cc(Cl)c(F)c(Cl)c2)C(F)(F)F)ccc1C(=O)NC1CCOCC1 (centres unmarked) [AC52] | A (50-100)
O=C(NC1CSC1)c1ccc(/C=C/C(c2cc(Cl)c(Cl)c(Cl)c2)C(F)(F)F)cc1C(F)(F)F (centres unmarked) [AC34] | A (50-100)
CSCCC(=O)NCc1ccc(/C=C/C(c2cc(Cl)c(Cl)c(Cl)c2)C(F)(F)F)cc1Cl (centres unmarked) [CC19] | A (50-100)
O=C(NCc1ccc(/C=C/C(c2cc(Cl)cc(Cl)c2)C(F)(F)F)cc1C(F)(F)F)C1CC1 (centres unmarked) [CC21] | A (50-100)
Cc1cc(/C=C/C(c2cc(Cl)cc(Cl)c2)C(F)(F)F)ccc1C(=O)NCc1ncccn1 (centres unmarked) [AC18] | A (50-100)
Cc1cc(/C=C/C(c2cc(Cl)cc(Cl)c2)C(F)(F)F)ccc1-n1cncn1 (centres unmarked) [DC62] | A (50-100)
Cc1cc(/C=C/C(c2cc(Cl)cc(Cl)c2)C(F)(F)F)ccc1C(=O)NCC(=O)NC1CC1 (centres unmarked) [AC40] | A (50-100)
O=C(NC1CS(=O)(=O)C1)c1ccc(/C=C/C(c2cc(Cl)c(F)c(Cl)c2)C(F)(F)F)cc1F (centres unmarked) [AC84] | A (50-100)
CNc1cc(/C=C/C(c2cc(Cl)cc(Cl)c2)C(F)(F)F)ccc1-n1cncn1 (centres unmarked) [DC57, (E)-5-(3-(3,5-Dichlorophenyl)-4,4,4-trifluorobut-1-en-1-yl)-N-methyl-2-(1H-1,2,4-triazol-1-yl)aniline] | A (50-100)
Cc1cc(/C=C/C(c2cc(Cl)c(Cl)c(Cl)c2)C(F)(F)F)ccc1C(=O)NC(C)(C)c1ccccn1 (centres unmarked) [AC27] | A (50-100)
Cc1cc(/C=C/C(c2cc(Cl)cc(Cl)c2)C(F)(F)F)ccc1C(=O)NCC(=O)NC1CSC1 (centres unmarked) [AC41] | A (50-100)
CC(C)(C)OC(=O)CNC(=O)c1ccc(/C=C/C(c2cc(Cl)c(Cl)c(Cl)c2)C(F)(F)F)cc1Br (centres unmarked) [AC58] | A (50-100)
CC(=O)N1CCC(NC(=O)c2ccc(/C=C/C(c3cc(Cl)c(Cl)c(Cl)c3)C(F)(F)F)cc2Br)CC1 (centres unmarked) [AC103, (E)-N-(1-Acetylpiperidin-4-yl)-2-bromo-4-(4,4,4-trifluoro-3-(3,4,5-trichlorophenyl)but-1-en-1-yl)benzamide] | A (50-100)
Cc1cc(/C=C/C(c2cc(Cl)c(F)c(Cl)c2)C(F)(F)F)ccc1C(=O)NCc1ccc(Cl)nc1 (centres unmarked) [AC38] | A (50-100)
Cc1cc(/C=C/C(c2cc(Cl)cc(Cl)c2)C(F)(F)F)ccc1C(=O)NC(C)(C)c1ccccn1 (centres unmarked) [AC16] | A (50-100)
